Consider 51 compounds from PubChem BioAssay AID449762 (Southern Research Specialized Biocontainment Screening …, 2010).

Results filed as inconclusive are left out. A value given as a limit tells only on which side of the number the result lay.

This assay relates to M. tuberculosis H37Rv growth inhibition, 7H9 media. As to the kind of experiment: M. tuberculosis growth inhibition, HTS (AID 449762).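 As to all read-outs here: bacterial growth assessed after seven days of incubation.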 Particulars: for IC90: measured here: IC90 growth inhibition.

As for `CC1=NN(c2ccc(C)c(C)c2)C(=O)/C1=C\C=C\c1ccc([N+](=O)[O-])o1`, the IC50 was 3.14 µM and the IC90 was 15.5 µM.

For `N/C(=N\NC(=O)c1sccc1OCc1ccc(Cl)cc1Cl)c1ccccn1`, the half-maximal inhibitory concentration (IC50) was 15.7 µM and the IC90 stood at 46 µM.

Regarding `CCOc1[nH]n(-c2ccccc2)c(=O)c1C=Nc1ccc(OC)cc1`, the IC50 is 36.5 µM and the IC90 is above 100 µM.

Regarding `Cc1ccc(Cl)cc1N1CCN(C(=O)C2CCC(=O)N(C3CCCCCC3)C2)CC1` (stereo unspecified), the IC50 was 19.3 µM and the IC90 came out at 28.6 µM.

On to `COc1ccccc1C1CC(c2ccc(Cl)cc2)Nc2ncnn21` (stereo unspecified), for which the IC50 is 11 µM and the IC90 was found to be 17.7 µM.

Consider `O=C(CCl)Nc1cn(-c2ccccc2)nc1-c1ccccc1`, for which the IC50 was below 0.2 µM and the IC90 came to 1.15 µM.

Turning to `CC(NCCCOc1cccc2ccccc12)c1ccccc1` (stereo unspecified), the IC50 is 22.6 µM and the concentration for an effect of 90% (IC90) amounted to 31.3 µM.

In the case of `Nc1cc([N+](=O)[O-])ccc1Nc1ccc(O)cc1`, the IC50 is 30.4 µM and the IC90 came out at 34 µM.

With `CCc1nc(N2CCN(C(C)=O)CC2)c2c3c(sc2n1)CC(C(C)(C)C)CC3` (stereo unspecified), the half-inhibitory concentration (IC50) is 12.8 µM and the IC90 worked out at 14.1 µM.

Regarding `COc1cccc(/C=N/Nc2ncnc3scc(-c4ccccc4)c23)c1O`, the IC50 is 1.57 µM and the IC90 came out at 3.35 µM.

Regarding `O=C(OCc1nc2ccccc2s1)c1ccc(Br)o1`, the IC50 was 18.9 µM and the IC90 is above 100 µM.

On to `CN(C(=S)NC(=O)c1ccc(Cl)cc1)C1CCCCC1`, for which the IC50 was 3.1 µM and the IC90 is 13.7 µM.

Turning to `CCCOc1ccc(C(=O)NC(=S)NCc2cccnc2)cc1`, the IC50 was 21.2 µM and the IC90 was determined as 28 µM.

Take `COc1ccc(Cc2nc3ccc(C(=O)NCCCSC)cc3o2)cc1OC`: the IC50 was 41.1 µM and the IC90 was above 100 µM.

In the case of `Cn1c(CNc2nc(-c3ccccc3)cs2)nnc1SCC(=O)OC1CCCCC1`, the IC50 was 11.6 µM and the 90% effect concentration (IC90) turned out to be 24.2 µM.

Turning to `Cc1cc(C(=O)CCl)c(C)n1CCc1ccc(Cl)cc1`, the IC50 was 0.34 µM and the IC90 turned out to be 2.18 µM.

Consider `COc1ccc(-c2cc3c(=O)n(CC(=O)NCCCN4CCC(Cc5ccccc5)CC4)ncn3n2)cc1`, for which the IC50 was 23.7 µM and the IC90 was 26.2 µM.

For `O=C(c1ccc(Cl)cc1)N1N=C(c2ccccn2)CC1(O)C(F)(F)F` (stereo unspecified), the IC50 is 2.21 µM and the IC90 is above 100 µM.

On to `COc1ccc(-c2csc(NC(C)c3nc4cc(Cl)c(N5CCCCC5)cc4n3CCCO)n2)cc1` (stereo unspecified), for which the IC50 was 11.2 µM and the IC90 turned out to be 12.7 µM.

As for `O=[N+]([O-])c1cc([N+](=O)[O-])c2c(=Nc3ccccc3)n(-c3ccccc3)n(O)c2c1`, the IC50 was 6.35 µM and the IC90 is 9.25 µM.

As to `CCCc1cc2c(cc1NC(=O)c1ccccc1Cl)OCO2`, the IC50 was 1.98 µM and the IC90 is above 100 µM.

For the compound `COc1cc(C)ccc1S(=O)(=O)N1CCN(C23CC4CC(CC(C4)C2)C3)CC1`, the IC50 is 28.8 µM and the IC90 is 44 µM.

Turning to `CC(=O)c1ccc(-n2cc(-c3ccc(C(C)(C)C)cc3)[n+]3c2SCCC3)cc1`, the IC50 is 4.34 µM and the IC90 stood at 29.5 µM.

On to `O=C(OCC#CCSc1nnc(-c2cccc3ccccc23)o1)c1cccs1`, for which the IC50 is 35.5 µM and the IC90 was 63.9 µM.

As for `C[C@@H]1CN([C@H](C)CO)C(=O)c2cc(NC(=O)Nc3ccc(C(F)(F)F)cc3)ccc2O[C@H]1CN(C)S(=O)(=O)c1cccs1`, the IC50 was 22.6 µM and the IC90 stood at 25.9 µM.

For the compound `CN1CCN(c2cc(-c3ccccc3)nc3cc(-c4ccc(F)cc4)nn23)CC1`, the IC50 is 11.4 µM and the 90% effect concentration (IC90) amounted to 15.7 µM.

For the compound `O=C([O-])c1ccccc1-[n+]1c(-c2ccccc2)cc(-c2ccccc2)cc1-c1ccccc1`, the half-inhibitory concentration (IC50) is 15.3 µM and the 90% effect concentration (IC90) stood at 20.5 µM.

As for `COc1ccc(CN2CCCC(C(=O)c3ccc(SC)cc3)C2)cc1Cn1cccn1` (stereo unspecified), the IC50 was 23.9 µM and the IC90 is 26.6 µM.

Consider `CCOC(=O)c1cc(-c2ccccc2)nc2c1c(C)nn2-c1ccccn1`, for which the IC50 was 2.97 µM and the IC90 amounted to 27.2 µM.

Take `CSC(=S)N/N=C/c1ccccc1`: the IC50 was 10.1 µM and the IC90 turned out to be 12.8 µM.

Regarding `CCOC(=O)c1c(C)[nH]c(N=Nc2ccc(OC)cc2)c1C`, the IC50 was 1.71 µM and the IC90 came out at 5.55 µM.

Turning to `C#C[C@]1(O)CC[C@H]2[C@@H]3CCc4cc(OC5CCCC5)ccc4[C@H]3CC[C@@]21C`, the IC50 is 35.5 µM and the IC90 turned out to be 48 µM.

Regarding `Cc1ccc(-c2cccc(NC(=O)C3C4C=CC(C4)C3C(=O)O)c2)o1` (stereo unspecified), the 50% inhibitory concentration (IC50) was 74.2 µM and the IC90 was above 100 µM.

Consider `C=CCN(C(=O)CSc1nc2c(sc3ccccc32)c(=O)n1CCN(CC)CC)c1ccccc1`, for which the IC50 is 29 µM and the IC90 was 36 µM.

In the case of `CCOC(=O)Cn1c(C)c(Br)c(=O)c2cccc(C)c21`, the IC50 was 7.53 µM and the IC90 came out at 22.7 µM.

For `Cc1ccc2c(c1)C1C[N+](C)(CC(=O)c3ccc(Cl)cc3Cl)CCC1N2C(=O)c1ccc(F)cc1` (stereo unspecified), the half-inhibitory concentration (IC50) is 23.9 µM and the IC90 was 27.1 µM.

`COc1ccccc1NC(=O)CN1CCN(CC(=O)Nc2ccc3c(c2)OCO3)CC1`: the IC50 was 14.8 µM and the IC90 came to 33.6 µM.

Take `O=C(CSc1nc2ncc(Br)cc2[nH]1)Nc1ccc2c(c1)OCO2`: the IC50 is 6.01 µM and the IC90 is 16.1 µM.

In the case of `COC(=O)C1=C(c2ccc(OCc3ccccc3)cc2)C[C@@H]2CC[C@H]1N2C(=O)NC1CCN(Cc2ccccc2)CC1`, the IC50 was 24.4 µM and the IC90 came to 27.5 µM.

Take `COc1ccccc1N1CCN(/N=C/C(Cl)=C/c2ccccc2)CC1`: the IC50 was 52.7 µM and the IC90 was above 100 µM.

`O=C(N/N=C/c1cn(-c2ccccc2)nc1-c1cccs1)c1ccc(Cl)cc1` gave an IC90 above 100 µM.

Turning to `c1ccc(CN2CCN(CCCNc3ccc4nnc(-c5ccccc5)n4n3)CC2)cc1`, the IC50 is 19.4 µM and the 90% effect concentration (IC90) amounted to 24.7 µM.

Regarding `CCCCNC(=S)N(C)/N=C/c1ccc2c(c1)OCO2`, the IC50 was 12.2 µM and the IC90 came to 20.4 µM.

For `COc1ccc2c(c1)CC/C(=C\C=C\c1ccccc1OC)C2=O`, the IC50 is 7.79 µM and the IC90 was 17.8 µM.

Turning to `COc1ccc(N2CCN(C(=O)c3cc4c(C)nc5ccccc5c4o3)CC2)cc1`, the IC50 is 18.5 µM and the 90% effect concentration (IC90) was 32.5 µM.

In the case of `Cn1c(SCc2ccccc2)nc(N)c(N=O)c1=O`, the IC50 was 3.5 µM and the IC90 was 20.8 µM.

In the case of `O=C(Nc1cc(N2CCOCC2)ncn1)NC1(C(F)(F)F)Oc2ccc(Cl)cc2O1` (stereo unspecified), the IC50 is 11.8 µM and the IC90 came out at 18.9 µM.

Turning to `O=C(CCl)NN=C(c1ccccc1)c1ccccc1`, the IC50 was 0.52 µM and the IC90 came out at 1.89 µM.

Take `CC(C)=CCOc1ccc([C@@H]2COc3c(ccc4c3C=CC(C)(C)O4)C2)c(O)c1`: the IC50 is 4.75 µM and the IC90 came to 7.77 µM.

In the case of `Clc1ccc(SCc2cc(N3CCOCC3)nc(-c3ccccn3)n2)cc1`, the IC50 was 0.92 µM and the IC90 was found to be 6.27 µM.

Turning to `O=C(O)/C=C/C(=O)Nc1ccc(-c2ccccc2)cc1`, the IC50 is 34.3 µM and the IC90 is above 100 µM.

By IC50 is commonly meant the concentration that gives 50% inhibition. For orientation: IC90 means the concentration at which the effect reaches the 90% level. The low end stands for an effect from little substance, the high end for a need for much substance.
